Experiments:
[1] = Acute toxicity, mortality within 24 hours, intraperitoneal; settings: mouse, in vivo, ip, mice, dose of 300 mg/kg
Protocol: The products to be studied were administered intraperitoneally in increasing doses to groups of 10 mice (CD1, Charles River; 20±1 g).
From the results obtained, the 50% lethal dose, i.e. the dose causing the death of 50% of the animals, was determined for each of the products studied.

[2] = test system: ptosis induced by reserpine; assay: Antagonism of the ptosis induced by reserpine; type: in vivo, female CD1 mice; settings: Mus musculus, ip; mice, intraperitoneal; reserpine 2 mg/kg i.v. simultaneously; read at 1 hour; read-out: ED50 (dose which completely blocks the ptosis induced by reserpine in 50% of the animals)
Protocol: This test, described by GOURET et al. (Journal de Pharmacologie, Paris, 8, 333-350, 1977), was performed on female CD1 mice (Charles River) weighing 20±1 g. Reserpine causes ptosis 1 hour after intravenous administration; the majority of antidepressants oppose this ptosis. The following protocol was chosen. The substances to be studied were administered intraperitoneally and the reserpine was simultaneously administered intravenously at a dose of 2 mg/kg. […] This test was performed on groups of 10 mice; the results are expressed as ED50 (50% effective dose), i.e. the dose which completely blocks the ptosis induced by reserpine in 50% of the animals.

[3] = test system: trembling induced by L-5-HTP; assay: Potentiation of the trembling induced by L-5-HTP; type: in vivo, female CD1 mice; settings: Mus musculus, ip; mice, intraperitoneal, 1 hour before L-5-HTP 200 mg/kg i.p.; observed 20 minutes; read-out: ED50 (dose which induces trembling in 50% of the animals treated)
Text: Its injection into mice causes a behavioral syndrome characterized in particular by violent trembling. Antidepressants which inhibit the recapture of serotonin or monoamine oxidase inhibitors (MAOI) potentiate this effect of […], 1959). The protocol described by […] (Biochem. Pharmacol., 2, 290-298, 1959) was used. […] The results are expressed as ED50, i.e. the dose which induces trembling in 50% of the animals treated.

dopaminergic receptors = assay: Rotation behavior, unilateral striatal lesion by 6-hydroxydopamine; type: in vivo, female CD1 mice; settings: Mus musculus, ip; mice, intraperitoneal, 1 hour after administration, rotations over 2 minutes; read-out: MED (minimum dose necessary to cause a significant reduction in the number of ipsilateral rotations)
Protocol: This test is the one described by PROTAIS et al. (Journal de Pharmacologie,Paris, 7, 251-255, 1976). Female mice (Charles River, CD1) weighing from 25 to 30 g were subjected beforehand to a unilateral lesion of the striatum by the stereotaxic injection of 6-hydroxydopamine at a rate of 8 μg per animal. One week after this operation, the products were administered intraperitoneally to groups of 7 mice. 1 hour after administration of the product, the number of rotations was evaluated for 2 minutes. The rotations on the same side as the lesion were counted as positive and those on the opposite side as negative. The algebraic sum of the rotations for one group of treated animals was compared with that of the group of control animals which had only received the vehicle (aqueous solution of gum). In this test, stimulants of the dopaminergic receptors (apomorphine type) reduce the spontaneous rotations whereas indirect dopaminomimetic agents (amphetamine type) increase them. The results are expressed as MED (minimum effective dose), i.e. the minimum dose necessary to cause a significant reduction (Student's t-test) in the number of ipsilateral rotations spontaneously observed in the control animals.

SMILES | mortality at 24 h [1] [%] | ED50 [2] [mg/kg] | ED50 [3] [mg/kg] | minimal effective dose (dopaminergic receptors) [mg/kg]
CN(C)CCNc1nnc(-c2ccccc2)s1 [Compound A, reference compound] | 70 | 32 |  | 
CCN(CC)CCNc1nnc(-c2ccccc2)s1 [Compound B, reference compound] | 90 | 43 |  | 
C1CCC(c2nnc(NCCN3CCOCC3)s2)C1 [SR 43057 A] |  | 23 |  | 
C1CCC(c2nnc(NCCN3CCOCC3)s2)CC1 [SR 43058, 2-(2-Morpholinoethylamino)-5-cyclohexyl-1,3,4-thiadiazole] |  | 22 | 17 | 
COc1ccc(-c2nnc(NCCN3CCOCC3)s2)cc1 [SR 43198, 2-(2-morpholinoethylamino)-5-(4-methoxyphenyl)-1,3,4-thiadiazole] |  |  | 7 | 
Cl.Cl.Oc1ccc(-c2nnc(NCCN3CCOCC3)s2)cc1 [SR 43202 A, 2-(2-Morpholinoethylamino)-5-(4-hydroxyphenyl)-1,3,4-thiadiazole dihydrochloride] |  |  |  | 0.1
c1ccc(-c2ccc(-c3nnc(NCCN4CCOCC4)s3)cc2)cc1 [SR 43294] |  |  |  | 0.1
COc1ccc(-c2nnc(NCCN3CCOCC3)s2)cc1OC [SR 43295, 2-(2-morpholinoethylamino)-5-(3,4-dimethoxyphenyl)-1,3,4-thiadiazole] |  |  |  | 0.1
Cl.Cl.Oc1ccc(-c2nnc(NCCN3CCOCC3)s2)cc1O [SR 43296 A, 2-(2-Morpholinoethylamino)-5-(3,4-dihydroxyphenyl)-1,3,4-thiadiazole dihydrochloride] |  |  |  | 0.1
O=[N+]([O-])c1ccc(-c2nnc(NCCN3CCOCC3)s2)cc1 [SR 43530] |  |  | 6.2 | 0.1
FC(F)(F)c1cccc(-c2nnc(NCCN3CCOCC3)s2)c1 [SR 43531 A] |  |  | 7.8 | 
FC(F)(F)c1ccc(-c2nnc(NCCN3CCOCC3)s2)cc1 [SR 43604] |  |  |  | 0.1
Cl.Cl.c1ccc(-c2nnc(NCCN3CCOCC3)s2)cc1 [SR 95311 A, 2-(2-Morpholinoethylamino)-5-phenyl-1,3,4-thiadiazole dihydrochloride] |  | 4.6 | 6 | 0.1
Clc1ccc(-c2nnc(NCCN3CCOCC3)s2)cc1 [SR 95340 A] |  | 8.8 | 3.6 | 
Clc1cccc(-c2nnc(NCCN3CCOCC3)s2)c1 [SR 95396 A] |  | 11.3 |  | 0.1
Clc1ccccc1-c1nnc(NCCN2CCOCC2)s1 [SR 95397 A] |  | 18 | 14.5 | 0.1
c1ccc2c(-c3nnc(NCCN4CCOCC4)s3)cccc2c1 [SR 95559 A] |  |  |  | 0.1

— patent US4596802A, “Thiadiazole derivatives active on the central nervous system and pharmaceutical compositions” (Sanofi, priority 1984, dated 1986)
